Reference: USRE44704E1, “Compositions and methods for treating cancer using immunoconjugates and chemotherapeutic agents” (Immunogen Inc., priority 1999, dated 2014)
Where two headings read alike, the source gives them in different places.

Legend:
[1] = tested on: human colon cancer HT-29 cells; experiment: Anti-tumor effect of C242-DM1, CPT-11 and their combination in established subcutaneous HT-29 xenograft model (Example 7, FIG. 10); assay type: in vivo; details: HT-29 s.c. xenografts, SCID mice, tumors about 80 mm^3 at start; CPT-11 50 mg/kg×2 q3d i.v.; C242-DM1 DM1 dose 75 μg/kg×5 qd i.v.
Method: (§1) A control group of animals received phosphate-buffered saline (PBS) using the same schedule as the animals in group 2. Tumor growth was monitored by measuring tumor size twice per week. Tumor size was calculated using the formula: length×width×height×½.

[2] = tested on: human small cell lung cancer SW-2 cells; experiment: Anti-tumor effect of huN901-DM1, docetaxel and their combination in established subcutaneous SW-2 xenograft model (Example 4, FIG. 7); assay type: in vivo; details: SW-2 s.c. xenografts, SCID mice, tumors about 100 mm^3 at start; docetaxel 5 mg/kg×5 q2d i.v.; huN901-DM1 DM1 dose 75 μg/kg×5 qd i.v.
Method: Tumor size was calculated with the formula: length×width×height×½.
In 3 out of 6 animals in this treatment group, the tumor was eradicated—resulting in cures lasting greater than 200 days. In the remaining 3 animals in this group, there was a tumor growth delay of 52 days, which is 24 days longer than the calculated additive effect.

[3] = tested on: NCI N417 cells (small cell lung cancer xenografts); assay type: in vivo; details: NCI N417 s.c. xenografts, SCID mice, tumors approx. 100 mm^3 at start; huN901-DM1 DM1 dose 75 μg/kg/d×5 i.v.; paclitaxel 10 mg/kg/d×5 i.p.
Method: In this experiment, a low, non-curative dose of huN901-DM1 was used with an optimal does of paclitaxel (Sigma Chemical Co., St. Louis, Mo.). SCID mice (7 animals per group) were inoculated subcutaneously with NCI N417 cells (8×10^6 cells/animal). After the tumors were well-established (average tumor size was approximately 100 mm^3), one group of animals was treated with huN901-DM1 at a DM1 dose of 75 μg/kg/d×5, administered i.v. everyday. A second group of animals was treated with paclitaxel at a dose of 10 mg/kg/d×5, administered by i.p. everyday. […] A fourth, control group of animals was left untreated. Tumor size was measured as described by Liu et al, Proc. Natl. Acad. Sci., 93:8618-8623 (1996). Animals were also monitored for weight loss as an indicator of signs of toxicity.
In the control group of animals, the tumors grew rapidly to a size of about 900 mm^3 by Day 28 post-tumor inoculation. In animals treated with either huN901-DM1 or paclitaxel, there was a modest anti-tumor effect with a tumor growth delay of 4 days in each case.

[4] = tested on: human lung adenocarcinoma NCI-H441 cells; details: NCI-H441 s.c. xenografts, SCID mice, tumors about 125 mm^3 at start; paclitaxel 15 mg/kg×5 q2d i.p.
Method: as §1

[5] = tested on: human small cell lung cancer SW-2 cells; experiment: Anti-tumor effect of huN901-DM1, topotecan and their combination in established subcutaneous SW-2 xenograft model (Example 5, FIG. 8); assay type: in vivo; details: SCID mice
Method: FIG. 8 is a graph comparing the anti-tumor activity of (i) a control, (ii) huN901-DM1, (iii) topotecan, and (iv) the combination of huN901-DM1 and topotecan, against small cell lung cancer xenografts in SCID mice.
The anti-tumor effect of a combination of a low dose of huN901-DM1 and topotecan (available as HYCAMTIN® from SmithKline Beecham Pharmaceuticals), one of the approved drugs for the treatment of small cell lung cancer (SCLC) in humans, was evaluated in an established subcutaneous xenograft model of SCLC. SCID mice (24 animals) were inoculated with human small cell lung cancer SW-2 cells (8×10^6 cells/animal) injected subcutaneously into the right flank of the mice. When the tumors reached about 80 mm^3 in size, the mice were randomly divided into four groups (6 animals per group). The first group of mice was treated with topotecan (1.4 mg/kg×5, qd) administered i.v. A second group of animals was treated with huN901-DM1 (DM1 dose of 100 μg/kg×5, qd) administered i.v. The third group of mice received a combination of topotecan and huN901-DM1, using the same doses and schedules as in groups 1 and 2. A control group of animals received phosphate-buffered saline (PBS) using the same schedule as the animals in group 2. Tumor growth was monitored by measuring tumor size twice per week. Tumor size was calculated using the formula: length×width×height×½.

[6] = tested on: NCI N417 cells (small cell lung cancer xenografts); experiment: Anti-tumor activity of huN901-DM1, cisplatin plus etoposide, and the triple combination against established NCI N417 xenografts (Example 3, FIG. 6); assay type: in vivo; details: NCI N417 s.c. xenografts, SCID mice; huN901-DM1 DM1 dose 75 μg/kg/d×5 i.v.; cisplatin 2 mg/kg/d×3 i.v. every other day; etoposide 8 mg/kg/d×3 every other day
Method: In this experiment, a low, non-curative dose of huN901-DM1 was used with an optimal dose of cisplatin (Sigma Chemical Co., St. Louis, Mo.) and etoposide (Sigma Chemical Co., St. Louis, Mo.). SCID mice (7 animals per group) were inoculated subcutaneously with NCI N417 cells (8×10^6 cells/animal). After the tumors were well-established (average tumor size was approximately 100 mm^3), one group of animals was treated with huN901-DM1 at a DM1 dose of 75 μg/kg/d×5, administered i.v. everyday. A second group of animals was treated with cisplatin (at a dose of 2 mg/kg/d×3, administered by i.v. ever other day) and etoposide (at a dose of 8 mg/kg/d×3, administered every other day). A third group of animals was treated with huN901-DM1, cisplatin and etoposide using the same dose and schedule used for a the individual agents. A fourth, control group of animals was left untreated. Tumor size was measured as described by Liu et al, Proc. Natl. Acad. Sci., 93:8618-8623 (1996). Animals were also monitored for weight loss as an indicator of signs of toxicity.
In the control group of animals, the tumors grew rapidly to a size of about 900 mm^3 by Day 28 post-tumor inoculation. In animals treated with either huN901-DM1 or cisplatin and etoposide, there was a modest anti-tumor effect with a tumor growth delay of 4 days in each case.

## CCc1c2c(nc3ccc(OC(=O)N4CCC(N5CCCCC5)CC4)cc13)-c1cc3c(c(=O)n1C2)COC(=O)[C@]3(O)CC [CPT-11, irinotecan]
[1]
  tumor growth delay: 6 days

## CC(=O)O[C@@]12CO[C@@H]1C[C@H](O)[C@@]1(C)C(=O)[C@H](O)C3=C(C)[C@@H](OC(=O)[C@H](O)[C@@H](NC(=O)OC(C)(C)C)c4ccccc4)C[C@@](O)([C@@H](OC(=O)c4ccccc4)[C@H]21)C3(C)C [docetaxel]
[2]
  tumor growth delay: 8 days

## CC(=O)O[C@H]1C(=O)[C@@]2(C)[C@H]([C@H](OC(=O)c3ccccc3)[C@]3(O)C[C@H](OC(=O)[C@H](O)[C@@H](NC(=O)c4ccccc4)c4ccccc4)C(C)=C1C3(C)C)[C@]1(OC(C)=O)CO[C@@H]1C[C@@H]2O [paclitaxel]
[3]
  tumor growth delay: 4 days
[4]
  tumor growth delay: 4 days

## CC[C@@]1(O)C(=O)OCc2c1cc1n(c2=O)Cc2cc3c(CN(C)C)c(O)ccc3nc2-1 [topotecan]
[5]; SW-2 s.c. xenografts, tumors about 80 mm^3 at start, topotecan 1.4 mg/kg×5 qd i.v.
  tumor growth delay: 12 days

B1: huN901-DM1: maytansinoid DM1 conjugated via SPP disulfide link to humanized monoclonal antibody N901 (binds CD56); 3.9 DM1 molecules per antibody (conjugate, chains of the INN, looked up)
VH: QVQLVESGGGVVQPGRSLRLSCAASGFTFSSFGMHWVRQAPGKGLEWVAYISSGSFTIYYADSVKGRFTISRDNSKNTLYLQMNSLRAEDTAVYYCARMRKGYAMDYWGQGTLVTVSS
VL: DVVMTQSPLSLPVTLGQPASISCRSSQIIIHSDGNTYLEWFQQRPGQSPRRLIYKVSNRFSGVPDRFSGSGSGTDFTLKISRVEAEDVGVYYCFQGSHVPHTFGQGTKVEIK
modifications: DM1 via SPP disulfide linker
notes: 3.9 DM1 molecules per antibody
[3]
  tumor growth delay: 4 days
[6]
  tumor growth delay: 4 days
[2]
  tumor growth delay: 20 days
[5]; SW-2 xenografts, 6 animals per group, topotecan 1.4 mg/kg×5 qd i.v., huN901-DM1 100 μg/kg×5 qd i.v.
  animals with complete tumor regression: 3 animals
[5]; SW-2 xenografts, huN901-DM1 DM1 dose 100 μg/kg×5 qd i.v., the 3 animals without complete regression
  tumor-growth delay in 3 out of 6 animals: 34 days
